Patent US20210145833A1, “Methods and Compositions for Hair Growth by Activating Autophagy” (The Regents of the University of California, priority 2018, published 2021)
Entries after “also recorded” stand apart in the source; their conditions may differ.

Columns and labels:
[1] = tested on: aged C57BL/6J mice; test: Oral α-KB treatment of aged mice (hair loss / hair coating); type: in vivo, mouse; details: 8 mM in drinking water over 30 weeks, aged female mice, 131 weeks of age
Experimental: For oral α-KB treatment, aged male and female C57BL/6J mice were obtained at 87 weeks of age (NIA aged rodent colonies). Mice were housed in a controlled SPF facility (22±2° C., 6:00-18:00, 12 h/12 h light/dark cycle) at UCLA. […] Treatment with either water (vehicle control), or α-KB (90 mg/kg bodyweight) in drinking water, started when mice were at 101 weeks of age. For topical α-KB treatment, aged male C57BL/6J mice were obtained at 21 months of age (NIA aged rodent colonies), shaved the following week, and topically treated with α-KB (32 mM) every other day for one month. All experiments were approved by the UCLA Chancellor's Animal Research Committee.

[2] = tested on: aged C57BL/6J mice; test: Topical treatment of shaved aged mice (pilot experiments); type: in vivo, mouse; details: pilot experiments on aged mice (data not shown)
Experimental: For oral α-KB treatment, aged male and female C57BL/6J mice were obtained at 87 weeks of age (NIA aged rodent colonies). Mice were housed in a controlled SPF facility (22±2° C., 6:00-18:00, 12 h/12 h light/dark cycle) at UCLA. […] For topical α-KB treatment, aged male C57BL/6J mice were obtained at 21 months of age (NIA aged rodent colonies), shaved the following week, and topically treated with α-KB (32 mM) every other day for one month. All experiments were approved by the UCLA Chancellor's Animal Research Committee.

[3] = tested on: LC3; test: Western blot of treated mouse skin: LC3; type: in vivo; details: telogen skin of mice treated topically 5 days
Experimental: (§1) Male mice were shaved and treated every other day starting on Postnatal Day 43. After 5 days, telogen skin samples were harvested and stage confirmed. […] Tissue and cell debris were removed by centrifugation and the lysate was boiled for 5 min in 1×SDS loading buffer containing 5% β-mercaptoethanol.

[4] = tested on: autophagy related markers; test: Western blot analysis of autophagy related markers in telogen skin; type: in vivo, mouse
Experimental: (§2) Male mice were shaved and treated every other day starting on Postnatal Day 43. After 5 days, telogen skin samples were harvested and stage confirmed. Mouse skin tissue lysate was prepared by homogenization in T-PER Tissue Protein Extraction Buffer (Thermo Scientific, 78510) with protease inhibitors (Roche, 11836153001) and phosphatase inhibitors (Sigma, P5726) by FastPrep-24 (MP Biomedicals). Tissue and cell debris were removed by centrifugation and the lysate was boiled for 5 min in 1×SDS loading buffer containing 5% β-mercaptoethanol. Samples were then subjected to SDS-PAGE on NuPAGE Novex 12% Bis-Tris gels (Invitrogen, NP0343BOX), and western blotting was carried out with antibodies against LC3 (Novus, NB100-2220), p62 (Sigma, P0068), Phospho-Beclin-1 (Ser15) (corresponding to Ser14 in mouse) (Cell Signaling, 84966), Phospho-Beclin-1 (Ser93) (corresponding to Ser91 in mouse) (Cell Signaling, 14717), Beclin-1 (Abcam, ab207612), or GAPDH (Ambion, AM4300).

[5] = tested on: C57BL/6J mouse dorsal skin; test: Assay for hair regeneration in mice (topical treatment of shaved telogen dorsal skin); details: for Rapid anagen entry on whole dorsal telogen skin: among treated mice
Experimental: Anagen in black mice is macroscopically recognizable by the melanin pigment visible through the skin, as the melanogenic activity of follicular melanocytes is strictly coupled to the anagen stage of the hair cycle.
All compounds were tested in both male and female mice. Every experiment was repeated independently at least 2 times. Some treatments with different agents were performed concurrently with shared control arms. C57BL/6J male mice were obtained at 6 or 8 weeks of age from Jackson Laboratories (Bar Harbor, ME). C57BL/6J female mice were obtained at 8 weeks of age from Jackson Laboratories (Bar Harbor, Me.). Mice were fed a standard chow diet and provided ad libitum access to food and water throughout the study. Mice were shaved dorsally in telogen, i.e., postnatal days of about 43-45 for males (unless otherwise indicated) and Day 58 for females, respectively. Vehicle control (25 μL DMSO, unless otherwise indicated) or test compounds (in 25 μL DMSO, unless otherwise indicated) were topically applied on the shaved skin every other day (unless otherwise described) for the duration of the experiments (3-6 weeks). Appearance of skin pigmentation and hair growth were monitored and documented by photos and videos. Progression was also assigned a value from 0 to 100 based on pigmentation levels and hair shaft density, with 0 indicating no hair growth (and no pigmentation) and higher number corresponding to darker skin and larger areas of dense hair growth. […] The vehicle DMSO was also mixed with PLO base for topical application.

[6] = tested on: hair follicles; details: treatment group vs control
Source text: Mouse dorsal skin was shaved before being collected for histological and molecular analyses. Full-thickness skin tissue was then fixed in 10% formalin solution (Sigma, HT501128) overnight and dehydrated for embedding in paraffin. […] Images were captured by Leica Aperio ScanScope AT brightfield system at ×20 magnification.

[7] = tested on: p62/SQSTM1; test: Western blot of treated mouse skin: p62; type: in vivo; details: treated mouse telogen skin
Experimental: as §1

[8] = tested on: Beclin 1 S14 phosphorylation; test: Western blot of treated mouse skin: phosphorylated Beclin 1 S14; type: in vivo; details: Day 5 post-treatment
Experimental: as §1

[9] = tested on: Beclin 1 S91 phosphorylation; test: Western blot of treated mouse skin: phosphorylated Beclin 1 S91; type: in vivo
Experimental: as §2

[10] = tested on: p62 transcript; test: Quantitative RT-PCR of p62 transcript in treated skin; type: in vivo, mouse; details: 24 hours post-treatment, B2m internal control
Experimental: At 24 hours post-treatment, telogen skin samples were harvested and total RNA was isolated using TRIzol reagent (Invitrogen) from whole thickness mouse skin tissue. cDNA was synthesized using iScript Reverse Transcription Supermix (Bio-Rad). iTaq Universal SYBR Green Supermix (Bio-Rad) and a Bio-Rad CFX Connect instrument were used for quantitative RT-PCR. The primer sequences used for RT-qPCR are as follows: […]

CCC(=O)C(=O)O [α-KB, α-ketobutyrate]
Hair loss / hair coating in aged mice [1]: negates hair loss; also recorded: greatly improved hair coating | Hair growth / regeneration in shaved aged animals [2]: only moderately promoted hair growth | LC3 expression (Western blot) [3]: elevated | Phosphorylated Beclin 1 (Western blot) ([4]; telogen skin of mice treated 5 days): elevated | Rapid anagen entry on whole dorsal telogen skin [5]: never | Hair regeneration ([5]; male mice shaved Postnatal Day 44, topical 32 mM every other day, Day 39 post-treatment): induces hair regeneration; also recorded: substantially induced skin pigmentation and hair regeneration

CO/C1=C\C(C)=C\[C@@H](C)[C@@H](O)[C@@H](C)C/C(C)=C/C=C/[C@H](OC)[C@@H]([C@@H](C)[C@@H](O)[C@H](C)[C@@]2(O)C[C@@H](O)[C@H](C)[C@@H](C(C)C)O2)OC1=O [bafilomycin A1]
Effect of co-treatment on hair regeneration by α-KG (64 mM) ([5]; bafilomycin 200 μM, male mice shaved Postnatal Day 52, topical every other day, Day 21 post-treatment): inhibits hair regeneration by α-KG

Cc1cc(Nc2cc(Cl)nc(Oc3ccc([N+](=O)[O-])cc3)n2)n[nH]1 [autophinib]
Effect of co-treatment on hair regeneration by α-KG (64 mM) ([5]; autophinib 4 mM, male mice shaved Postnatal Day 53, topical every other day, Day 20 post-treatment): inhibits hair regeneration by α-KG | Effect of co-treatment on SMER28 (2 mM) induced hair regeneration ([5]; autophinib 4 mM, mice shaved Postnatal Day 51, topical every other day, Day 20 post-treatment): inhibited; also recorded: prevented hair regeneration by SMER28

CN(C)C(=N)N=C(N)N [metformin]
Autophagy induction ([4]; topical treatment of mouse skin): similarly induced | Rapid anagen entry on whole dorsal telogen skin [5]: never | Hair regeneration ([5]; male mice shaved Postnatal Day 43, topical 160 mM every other day, vehicle H2O, Day 48 post-treatment): induces hair regeneration; also recorded: similarly induced

O=C(O)CCC(=O)C(=O)O [α-KG, α-ketoglutarate]
Hair growth / regeneration in shaved aged animals [2]: did not visibly increase | Follicles and proliferation marker Ki-67 expression [6]: More follicles and high proliferation marker Ki-67 expression

NC(=O)c1ncn([C@@H]2O[C@H](COP(=O)(O)O)[C@@H](O)[C@H]2O)c1N [AICAR, 5-aminoimidazole-4-carboxamide ribonucleotide]
Rapid anagen entry on whole dorsal telogen skin [5]: never | Hair regeneration ([5]; male mice shaved Postnatal Day 44, topical 16 mM every other day, Day 41 post-treatment): induces hair regeneration; also recorded: stimulated

C=CCNc1ncnc2ccc(Br)cc12 [SMER28]
LC3 expression (Western blot) [3]: increased | p62 expression (Western blot) [7]: increased | Beclin 1 S14 phosphorylation (mTOR-dependent) [8]: not increased | Beclin 1 S91 phosphorylation (AMPK-dependent) [9]: not increased | p62 transcript levels (quantitative RT-PCR) [10]: increased | Rapid anagen entry on whole dorsal telogen skin [5]: observed from time to time | Hair regeneration ([5]; male mice shaved Postnatal Day 45, topical 1 mM daily, Day 23 post-treatment): greatly induced hair regeneration | Hair regeneration ([5]; mice shaved Postnatal Day 51, topical 2 mM every other day, Day 20 post-treatment): induced hair regeneration

CC[C@H]1/C=C/C=C/C[C@@H](C)[C@H](O)[C@@](C)(O)C(=O)[C@@H](C)[C@H](O)[C@@H](C)C(=O)[C@@H](C)[C@H](O)[C@@H](C)/C=C/C(=O)O[C@@H]2[C@H](C)[C@H](CC1)O[C@]1(CC[C@H](C)[C@H](C[C@@H](C)O)O1)[C@H]2C [oligomycin]
LC3 expression (Western blot) [3]: Increased autophagy | Beclin 1 S14 phosphorylation (mTOR-dependent) [8]: increased | Beclin 1 S91 phosphorylation (AMPK-dependent) [9]: increased | Rapid anagen entry on whole dorsal telogen skin [5]: observed from time to time | Hair regeneration in female mice ([5]; female mice shaved Postnatal Day 58, topical 10 μM every other day, Day 26 post-treatment): stimulate hair regeneration | Hair regeneration ([5]; male mice shaved Postnatal Day 44, topical 100 μM every other day, Day 23 post-treatment): similarly promoted hair regeneration | Hair regeneration ([5]; male mice shaved Postnatal Day 44, topical 100 μM every other day, Day 23 post-treatment, listed as Oligomycin): induces hair regeneration

CO[C@H]1C[C@@H]2CC[C@@H](C)[C@@](O)(O2)C(=O)C(=O)N2CCCC[C@H]2C(=O)O[C@H]([C@H](C)C[C@@H]2CC[C@@H](O)[C@H](OC)C2)CC(=O)[C@H](C)/C=C(\C)[C@@H](O)[C@@H](OC)C(=O)[C@H](C)C[C@H](C)/C=C/C=C/C=C/1C [rapamycin]
Adverse skin effect ([5]; topical 16 μM (data not shown)): hair loss and open wounds
